# Source: ChEMBL document CHEMBL4421719, “Modulation of k2p channels” (2016)
# Key:
# Type in all cases: cell-based
# [1] = target: T1, Potassium channel subfamily K member 10 (Homo sapiens) (UniProt P57789); assay: Activation of K2P10.1 (unknown origin) expressed in Xenopus oocytes assessed as effect on channel currents at -80 mV holding potential by two-electrode voltage clamp assay relative to control
# T1 sequence (whole entry): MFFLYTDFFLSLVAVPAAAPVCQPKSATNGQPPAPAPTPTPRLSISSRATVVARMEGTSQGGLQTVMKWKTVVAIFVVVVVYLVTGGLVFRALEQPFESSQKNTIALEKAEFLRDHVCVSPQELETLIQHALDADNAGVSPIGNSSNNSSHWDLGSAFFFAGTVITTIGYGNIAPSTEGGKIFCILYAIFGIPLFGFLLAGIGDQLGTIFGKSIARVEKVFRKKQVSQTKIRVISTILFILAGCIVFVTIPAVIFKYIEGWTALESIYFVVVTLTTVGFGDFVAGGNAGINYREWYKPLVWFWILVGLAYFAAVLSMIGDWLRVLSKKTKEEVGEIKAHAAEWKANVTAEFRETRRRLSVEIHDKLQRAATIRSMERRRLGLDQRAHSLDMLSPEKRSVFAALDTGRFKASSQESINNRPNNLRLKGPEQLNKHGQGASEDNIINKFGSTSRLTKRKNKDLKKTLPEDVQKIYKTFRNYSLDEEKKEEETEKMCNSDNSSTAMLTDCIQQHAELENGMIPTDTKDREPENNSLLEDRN
# [2] = target: T2, Potassium channel subfamily K member 18 (Homo sapiens) (UniProt Q7Z418); assay: Activation of K2P18.1 (unknown origin) expressed in Xenopus oocytes assessed as effect on channel currents at -80 mV holding potential at 100 uM by two-electrode voltage clamp assay relative to control
# T2 sequence (whole entry): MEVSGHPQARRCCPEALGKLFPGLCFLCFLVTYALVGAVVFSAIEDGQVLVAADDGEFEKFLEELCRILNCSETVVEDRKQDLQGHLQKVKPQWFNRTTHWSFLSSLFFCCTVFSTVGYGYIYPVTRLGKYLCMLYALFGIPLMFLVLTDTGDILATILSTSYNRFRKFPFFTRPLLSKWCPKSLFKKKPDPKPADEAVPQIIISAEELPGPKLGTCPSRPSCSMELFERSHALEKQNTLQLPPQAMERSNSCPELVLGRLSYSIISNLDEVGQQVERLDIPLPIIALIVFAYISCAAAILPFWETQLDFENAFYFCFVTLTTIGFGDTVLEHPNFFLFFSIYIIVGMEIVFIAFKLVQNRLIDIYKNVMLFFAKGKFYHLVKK
# Homo sapiens = species on record: Homo sapiens; assay: Activation of K2P2.1 3G mutant (unknown origin) expressed in Xenopus oocytes assessed as effect on channel currents at -80 mV holding potential by two-electrode voltage clamp assay relative to control
# [3] = system: Potassium channel subfamily K member 2 (Homo sapiens), O95069 [UNDEFINED MUTATION]; assay: Activation of K2P2.1 W275S mutant (unknown origin) expressed in Xenopus oocytes assessed as effect on channel currents at -80 mV holding potential by two-electrode voltage clamp assay relative to control
# Sequence of Potassium channel subfamily K member 2 (Homo sapiens), O95069 [UNDEFINED MUTATION] (O95069 whole entry, looked up, stated change not applied): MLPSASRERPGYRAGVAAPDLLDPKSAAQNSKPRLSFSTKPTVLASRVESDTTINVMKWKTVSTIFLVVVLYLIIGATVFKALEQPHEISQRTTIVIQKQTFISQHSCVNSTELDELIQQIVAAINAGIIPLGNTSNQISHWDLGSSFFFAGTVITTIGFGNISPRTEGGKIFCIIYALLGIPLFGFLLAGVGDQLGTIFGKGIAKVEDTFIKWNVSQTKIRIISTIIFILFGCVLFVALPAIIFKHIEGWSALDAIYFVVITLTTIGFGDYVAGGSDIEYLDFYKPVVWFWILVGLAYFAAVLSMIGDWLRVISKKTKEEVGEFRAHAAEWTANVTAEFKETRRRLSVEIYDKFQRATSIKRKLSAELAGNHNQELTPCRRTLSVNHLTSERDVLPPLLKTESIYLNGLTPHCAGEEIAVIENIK
compound,measurement,setting,value
CC1(C)c2cc(Cl)ccc2N(CCc2nnn[nH]2)c2ccc(Cl)cc21,Emax,[1],11.4
same,Emax,[2],0.9%
same,Emax,Homo sapiens,12.9
same,Emax,[3],5.1
